# According to patent publication US20240092758A1, “IMIDAZOLO INDAZOLE COMPOUNDS AS JAK INHIBITORS” (Theravance Biopharma R&D IP, LLC, priority 2021, published 2024):
# What was measured:
# JAK1 = JAK1 (Homo sapiens (Human), UniProt P23458); test: Biochemical JAK kinase assay (LanthaScreen), JAK1; conditions: read-out: JAK1 pKi (converted)
# Procedure, shortened: (§1)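 LanthaScreen format: phospho-STAT1 (pTyr701) detected with 2 nM Tb antibody after 10 mM EDTA quench. Kinase step used Km-level ATP and 200 nM STAT1 peptide, 1 h at ambient after 1 h pre-incubation. Inhibition fitted to IC50, reported as pKi.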
# JAK2 = JAK2 (Homo sapiens (Human), UniProt O60674); test: Biochemical JAK kinase assay (LanthaScreen), JAK2; conditions: read-out: JAK2 pKi (converted)
# Sequence of JAK2 (O60674 whole entry): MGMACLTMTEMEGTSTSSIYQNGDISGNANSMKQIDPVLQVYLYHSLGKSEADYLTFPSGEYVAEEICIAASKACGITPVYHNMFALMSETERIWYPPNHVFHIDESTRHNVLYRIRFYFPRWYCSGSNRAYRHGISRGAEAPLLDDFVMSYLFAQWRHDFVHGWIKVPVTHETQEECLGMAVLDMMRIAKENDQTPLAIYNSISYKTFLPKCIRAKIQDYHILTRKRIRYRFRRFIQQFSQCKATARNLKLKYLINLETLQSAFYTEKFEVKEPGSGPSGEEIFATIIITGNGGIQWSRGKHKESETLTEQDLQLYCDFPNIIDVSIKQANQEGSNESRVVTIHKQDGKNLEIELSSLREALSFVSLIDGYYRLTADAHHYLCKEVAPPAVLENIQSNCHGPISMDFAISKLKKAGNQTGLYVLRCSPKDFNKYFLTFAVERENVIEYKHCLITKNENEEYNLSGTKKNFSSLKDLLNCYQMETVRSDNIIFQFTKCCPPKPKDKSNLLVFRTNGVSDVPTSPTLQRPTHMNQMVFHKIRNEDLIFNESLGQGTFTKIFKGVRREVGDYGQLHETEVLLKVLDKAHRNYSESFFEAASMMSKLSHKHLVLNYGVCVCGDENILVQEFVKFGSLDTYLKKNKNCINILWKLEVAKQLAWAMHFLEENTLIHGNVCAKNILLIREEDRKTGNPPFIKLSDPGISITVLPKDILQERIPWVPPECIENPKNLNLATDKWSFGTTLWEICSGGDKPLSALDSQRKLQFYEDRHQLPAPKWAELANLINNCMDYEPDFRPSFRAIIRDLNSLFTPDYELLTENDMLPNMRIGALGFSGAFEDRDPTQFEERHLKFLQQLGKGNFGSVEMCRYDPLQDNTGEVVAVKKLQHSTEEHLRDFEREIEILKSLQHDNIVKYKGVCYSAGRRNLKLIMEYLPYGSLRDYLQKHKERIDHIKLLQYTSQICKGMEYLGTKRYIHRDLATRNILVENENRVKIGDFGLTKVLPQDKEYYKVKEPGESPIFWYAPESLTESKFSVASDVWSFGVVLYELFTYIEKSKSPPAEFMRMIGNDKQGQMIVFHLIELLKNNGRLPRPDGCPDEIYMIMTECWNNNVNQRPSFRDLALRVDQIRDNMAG
# Procedure, shortened: as §1
# JAK3 = JAK3 (Homo sapiens (Human), UniProt P52333); test: Biochemical JAK kinase assay (LanthaScreen), JAK3; conditions: read-out: JAK3 pKi (converted)
# Sequence of JAK3 (P52333 whole entry): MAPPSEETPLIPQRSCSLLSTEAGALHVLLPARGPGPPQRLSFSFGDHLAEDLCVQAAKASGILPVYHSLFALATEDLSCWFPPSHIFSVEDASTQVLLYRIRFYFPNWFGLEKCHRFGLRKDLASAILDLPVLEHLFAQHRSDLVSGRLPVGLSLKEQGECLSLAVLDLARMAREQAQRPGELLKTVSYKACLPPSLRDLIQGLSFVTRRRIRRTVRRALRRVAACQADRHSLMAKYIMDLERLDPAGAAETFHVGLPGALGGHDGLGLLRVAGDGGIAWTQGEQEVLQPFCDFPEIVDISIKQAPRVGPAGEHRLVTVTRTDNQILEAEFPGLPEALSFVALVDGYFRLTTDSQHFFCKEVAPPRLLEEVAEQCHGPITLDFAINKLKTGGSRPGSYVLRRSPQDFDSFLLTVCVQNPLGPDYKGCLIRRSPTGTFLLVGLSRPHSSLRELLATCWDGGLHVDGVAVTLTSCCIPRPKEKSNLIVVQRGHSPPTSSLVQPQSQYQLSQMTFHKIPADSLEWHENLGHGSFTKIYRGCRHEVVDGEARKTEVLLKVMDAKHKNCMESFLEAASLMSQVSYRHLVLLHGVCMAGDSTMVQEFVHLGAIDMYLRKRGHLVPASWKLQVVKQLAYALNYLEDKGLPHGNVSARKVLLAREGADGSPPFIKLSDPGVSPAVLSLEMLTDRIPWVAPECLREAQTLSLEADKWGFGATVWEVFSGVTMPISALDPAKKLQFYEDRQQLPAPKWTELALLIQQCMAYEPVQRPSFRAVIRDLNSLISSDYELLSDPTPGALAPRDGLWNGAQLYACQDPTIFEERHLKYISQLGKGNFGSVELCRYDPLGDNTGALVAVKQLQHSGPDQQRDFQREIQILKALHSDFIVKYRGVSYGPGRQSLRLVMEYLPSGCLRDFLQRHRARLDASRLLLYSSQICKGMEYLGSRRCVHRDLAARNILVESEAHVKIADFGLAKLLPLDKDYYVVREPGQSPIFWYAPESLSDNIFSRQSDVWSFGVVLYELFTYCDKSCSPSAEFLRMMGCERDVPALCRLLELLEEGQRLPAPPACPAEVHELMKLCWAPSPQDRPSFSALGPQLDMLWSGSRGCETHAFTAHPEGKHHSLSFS
# Procedure, shortened: as §1
# TYK2 = TYK2 (Homo sapiens (Human), UniProt P29597); test: Biochemical JAK kinase assay (LanthaScreen), Tyk2; conditions: read-out: Tyk2 pKi (converted)
# Sequence of TYK2 (P29597 whole entry): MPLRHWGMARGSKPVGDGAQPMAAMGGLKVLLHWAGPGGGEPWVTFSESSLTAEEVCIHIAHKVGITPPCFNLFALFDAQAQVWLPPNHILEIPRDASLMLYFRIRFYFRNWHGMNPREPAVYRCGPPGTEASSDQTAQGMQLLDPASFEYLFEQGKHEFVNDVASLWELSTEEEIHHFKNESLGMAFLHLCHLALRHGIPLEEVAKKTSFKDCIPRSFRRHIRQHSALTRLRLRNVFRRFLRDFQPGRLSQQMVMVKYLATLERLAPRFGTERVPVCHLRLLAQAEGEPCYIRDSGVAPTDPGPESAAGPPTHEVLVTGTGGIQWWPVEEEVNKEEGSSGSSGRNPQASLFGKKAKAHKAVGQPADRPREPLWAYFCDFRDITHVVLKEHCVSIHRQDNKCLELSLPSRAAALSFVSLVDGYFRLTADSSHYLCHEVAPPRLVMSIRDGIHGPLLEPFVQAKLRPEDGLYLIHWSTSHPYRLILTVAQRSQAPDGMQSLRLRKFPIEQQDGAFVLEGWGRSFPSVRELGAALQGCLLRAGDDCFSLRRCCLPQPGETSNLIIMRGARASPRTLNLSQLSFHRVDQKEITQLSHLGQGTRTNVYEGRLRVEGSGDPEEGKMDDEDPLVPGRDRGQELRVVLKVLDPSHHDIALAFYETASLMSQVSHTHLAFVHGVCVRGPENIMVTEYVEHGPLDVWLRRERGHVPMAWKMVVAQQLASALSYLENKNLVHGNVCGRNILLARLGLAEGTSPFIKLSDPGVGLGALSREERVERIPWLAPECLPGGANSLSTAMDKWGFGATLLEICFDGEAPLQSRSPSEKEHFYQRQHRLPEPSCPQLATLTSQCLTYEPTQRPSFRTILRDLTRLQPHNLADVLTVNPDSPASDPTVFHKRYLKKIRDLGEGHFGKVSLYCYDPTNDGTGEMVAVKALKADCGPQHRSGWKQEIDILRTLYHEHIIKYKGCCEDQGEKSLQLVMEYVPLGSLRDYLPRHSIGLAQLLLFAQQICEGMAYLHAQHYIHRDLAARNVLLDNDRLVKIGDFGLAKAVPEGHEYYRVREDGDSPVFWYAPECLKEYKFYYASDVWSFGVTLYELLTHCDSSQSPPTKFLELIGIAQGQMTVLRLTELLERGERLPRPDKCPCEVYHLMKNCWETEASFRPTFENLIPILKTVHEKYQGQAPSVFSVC
# Procedure, shortened: as §1
# [1] = tested on: IL-13 induced STAT6 phosphorylation in BEAS-2B human lung epithelial cells; test: Cellular JAKI potency assay (BEAS-2B); format: cell-based; conditions: Homo sapiens, BEAS-2B, BEAS-2B cells, read-out: BEAS2B pIC50 (converted)
# Procedure, shortened: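 BEAS-2B cells were preincubated with compound (0.1% DMSO) in HBSS/HEPES/BSA for 1 h at 37 °C, then stimulated with IL-13 (80 ng/mL before addition) for 30 min. After lysis, pSTAT6 (Tyr641) was quantified by AlphaLISA SureFire; IC50 from a 4-parameter fit of percent inhibition, reported as pIC50.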
# [2] = tested on: IL-13 induced pSTAT6 in lung tissue; test: Murine model of IL-13 induced pSTAT6 induction in lung tissue; format: in vivo, mouse; conditions: balb/c mice, test compound 0.5 mg/mL, 50 μL by oral aspiration, IL-13 challenge eight hours later, lungs collected one hour after
# Protocol: IL-13 binds to cell surface receptors activating members of the Janus family of kinases (JAK) which then phosphorylate STAT6 and subsequently activate further transcription pathways. In the described model, a dose of IL-13 was delivered locally into the lungs of mice to induce the phosphorylation of STAT6 (pSTAT6) which is then measured as the endpoint.
# Adult balb/c mice from Harlan were used in the assay. On the day of study, animals were lightly anesthetized with isoflurane and administered either vehicle or test compound (0.5 mg/mL, […] total volume over several breaths) via oral aspiration.
# Animals were placed in lateral recumbency post dose and monitored for full recovery from anesthesia before being returned to their home cage. Eight hours later, animals were once again briefly anesthetized and challenged with either vehicle or IL-13 (0.03 μg total dose delivered, 50 μL total volume) via oral aspiration before being monitored for recovery from anesthesia and returned to their home cage. One hour after vehicle or IL-13 administration, lungs were collected for both pSTAT6 detection using an AlphaLISA Immunoassay (PerkinElmer) and analyzed for total drug concentration.
# Selected compounds of the present disclosure were tested in the assay. Activity in the model is evidenced by a decrease in the level of pSTAT6 present in the lungs of treated animals at 9 hours compared to the vehicle treated, IL-13 challenged control animals. The difference between the control animals which were vehicle-treated, IL-13 challenged and the control animals which were vehicle-treated, vehicle challenged dictated the 0% and 100% inhibitory effect, respectively, in any given experiment.
# Sequence of JAK1 (P23458 whole entry): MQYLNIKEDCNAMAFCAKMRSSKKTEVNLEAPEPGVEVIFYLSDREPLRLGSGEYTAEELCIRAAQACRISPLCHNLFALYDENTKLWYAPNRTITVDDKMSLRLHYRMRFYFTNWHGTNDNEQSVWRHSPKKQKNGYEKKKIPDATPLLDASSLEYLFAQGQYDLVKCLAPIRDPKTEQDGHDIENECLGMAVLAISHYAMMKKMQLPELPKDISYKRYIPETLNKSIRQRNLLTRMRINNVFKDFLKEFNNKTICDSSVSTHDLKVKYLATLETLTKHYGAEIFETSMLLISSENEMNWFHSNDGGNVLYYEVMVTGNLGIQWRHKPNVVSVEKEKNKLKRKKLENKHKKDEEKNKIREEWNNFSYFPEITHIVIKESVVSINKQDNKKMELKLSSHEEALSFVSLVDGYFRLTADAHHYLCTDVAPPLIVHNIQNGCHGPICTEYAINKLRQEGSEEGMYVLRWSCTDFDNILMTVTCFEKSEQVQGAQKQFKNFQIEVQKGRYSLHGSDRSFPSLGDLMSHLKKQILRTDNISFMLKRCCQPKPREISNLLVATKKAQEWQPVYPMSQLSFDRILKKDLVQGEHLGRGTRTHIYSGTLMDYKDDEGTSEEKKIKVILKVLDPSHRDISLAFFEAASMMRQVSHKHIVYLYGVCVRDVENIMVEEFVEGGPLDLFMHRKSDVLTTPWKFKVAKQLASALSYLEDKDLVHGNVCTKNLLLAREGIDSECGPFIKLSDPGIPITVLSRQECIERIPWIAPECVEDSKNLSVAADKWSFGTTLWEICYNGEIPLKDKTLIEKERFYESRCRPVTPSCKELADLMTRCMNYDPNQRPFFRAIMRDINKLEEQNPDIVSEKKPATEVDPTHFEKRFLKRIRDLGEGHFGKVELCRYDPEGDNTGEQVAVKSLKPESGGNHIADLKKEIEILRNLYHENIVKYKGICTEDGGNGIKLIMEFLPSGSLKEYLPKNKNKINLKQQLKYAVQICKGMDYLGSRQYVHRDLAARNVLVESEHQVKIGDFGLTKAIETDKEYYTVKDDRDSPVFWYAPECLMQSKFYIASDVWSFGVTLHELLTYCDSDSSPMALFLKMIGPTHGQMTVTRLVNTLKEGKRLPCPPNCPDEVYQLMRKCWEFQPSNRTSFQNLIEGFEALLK
SMILES,Ki (JAK1),Ki (JAK2),Ki (JAK3),Ki (TYK2),IC50 [1],% pSTAT6 inhibition at 8 hours [2]
"CCc1cc(O)ccc1-c1ccc2c(-c3nc(C4=CCNC4)c[nH]3)n[nH]c2c1F [Compound 1, 4-(3-(4-(2,5-dihydro-1H-pyrrol-3-yl)-1H-imidazol-2-yl)-7-fluoro-1H-indazol-6-yl)-3-ethylphenol]",0.1 to 1 nM,0.1 to 1 nM,0.1 to 1 nM,1 to 10 nM,3.16 to 10 nM,A (A represents between 80% and 100% inhibition)
"CCc1cc(O)ccc1-c1ccc2c(-c3nc(C4=CCNCC4)c[nH]3)n[nH]c2c1F [Compound 2, 3-ethyl-4-(7-fluoro-3-(4-(1,2,3,6-tetrahydropyridin-4-yl)-1H-imidazol-2-yl)-1H-indazol-6-yl)phenol]",0.1 to 1 nM,0.1 to 1 nM,1 to 10 nM,1 to 10 nM,3.16 to 10 nM,A (A represents between 80% and 100% inhibition)
"CCc1cc(O)ccc1-c1ccc2c(-c3nc(C4=CCNCC4)c[nH]3)n[nH]c2c1 [Compound 3, 3-ethyl-4-(3-(4-(1,2,3,6-tetrahydropyridin-4-yl)-1H-imidazol-2-yl)-1H-indazol-6-yl)phenol]",0.1 to 1 nM,0.1 to 1 nM,1 to 10 nM,0.1 to 1 nM,3.16 to 10 nM,A (A represents between 80% and 100% inhibition)
